According to patent US3976673A, “4-Cyclopropylmethyleneoxy-3-chlorophenylacetic acid and salts thereof” (priority 1974, dated 1976):

Experiments:
[1] = test system: hyperpyressia induced by bactopeptone; assay: Anti-piretic activity, hyperpyressia induced by bactopeptone; format: in vivo, Wistar male rats
Experimental: (§1) This was evaluated considering 2 kinds of hyperpyressia. Hyperpyressia induced by:
1 Milliliter of 5% aqueous solution of bactopeptone preincubated for 18 hours at 37°C were injected subcutaneously in Wistar male rats weighing 170-190 g. 4 Hours after treatment with the pyrogen, the animals were divided into groups of ten animals each and treated orally with the substances under examination. The rectal temperature was taken at the beginning of the test, 4 hours after the injection of the pyrogen agent and subsequently 1, 2 and 3 hours after the administration of the substances under test. The difference between the temperature taken in the treated animals and in controls is an index of the anti-pyretic activity.

[2] = test system: hyperpyressia induced by yeast; assay: Anti-piretic activity, hyperpyressia induced by yeast; format: in vivo, albino rabbits
Experimental: as §1
To albino rabbits, 1 ml/kg of a 0.2% aqueous suspension of yeast were injected intravenously. The rectal temperature was teken at the beginning of the experiment and 60 minutes after the treatment with the pyrogen agent. Immediately after taking the temperature the compounds under test were administered orally to the animals and the rectal temperatures thereof were subsequently measured after 30, 60, 120 and 180 minutes. 10 Animals were treated for each dose level. The difference between the temperatures taken in the animals treated and in the controls is and index of the antipyretic activity. The results obtained by performing the two methods cited above for the determination of the antipyretic activity are listed in Tables 4 and 5 respectively and evaluated as average value for each dose.

[3] = test system: abdominal stretching induced by phenylbenzoquinone; assay: Analgesic activity, Siegmund (phenylbenzoquinone abdominal stretching); format: in vivo, Swiss male mice; details: salts' dosage expressed as acid, vs water controls
Experimental: It was evaluated according to the following methods:
The antagonism towards the abdominal stretching induced by phenylbenzoquinone was evaluated. Swiss male mice weighing 19-21 g were treated orally with the compounds under examination 30 minutes before the endoperitoneal administration of 0.25 ml of a […] aqueous phenylbenzoquinone solution. The animals were kept under observation for 30 minutes after treatment with phenylbenzoquinone and the abdominal stretchings for each animal were counted. 10 Mice for each dosage level were used and the corresponding average values considered. The percentage decrease of the number of abdominal stretchings in the animals treated with the substances under test compared with the controls treated with water was taken as the index of the analgesic activity.

[4] = test system: pain threshold of rat's paw made edematous by yeast; assay: Analgesic activity, Randall and Selitto (pain threshold of edematous rat paw); format: in vivo, male Wistar rats; details: vs basal values
Experimental: It was evaluated according to the following methods: a. Randall and Selitto The pressure to be exerted on a rat's paw previously made edematous by injecting into the plantar zone 0.1 ml of 20% suspension of yeast until appearance of painful reaction was measured in mmHg. The pain threshold was determined 30 minutes before and 30, 60, 90 and 120 minutes after the administration of the substances under test. 10 Male Wistar rats weighing 170-190 g were used for each dosage level and the corresponding average values considered for each dose. The percentage increase of the pain threshold compared to the basal values is taken as the index of the analgesic activity.

[5] = test system: edema induced by carrageenin; assay: Anti-inflammatory activity, Winter's method (carrageenin edema); format: in vivo, male rats; details: 3 hours after carrageenin
Experimental: This was determined according to Winter's method which evaluates the inhibiting effect on the edema induced by carrageenin.
Male rats weighing 170-190 g were treated with the compounds under test and after 60 minutes 0.005 ml of a 1% aqueous solution of carrageenin were injected into the plantar zone of a hind paw of each animal. The volume of the treated paw was determined immediately after the injection and 3 hours later.
10 Animals were used for each dosage level. The increase difference in the volume of the paw of animals treated compared with the controls represents the index of the anti-inflammatory activity. The results obtained, expressed as percentage inhibition of the volume of the edema compared to the controls and evaluated as average value for each dose are listed in Table 3.

[6] = 15 mg/kg os, salts' dosage expressed as acid
[7] = 25 mg/kg os, salts' dosage expressed as acid
[8] = 25 mg/kg i.p., salts' dosage expressed as acid
[9] = 50 mg/kg i.p., salts' dosage expressed as acid
[10] = 50 mg/kg os, salts' dosage expressed as acid
[11] = 5 mg/kg i.p., salts' dosage expressed as acid
[12] = 10 mg/kg os, salts' dosage expressed as acid

Compound | Rectal temperature, 1 hour after treatment [1, 6] | Rectal temperature, 2 hours after treatment [1, 6] | Rectal temperature, 3 hours after treatment [1, 6] | Rectal temperature, 1 hour after treatment [1, 7] | Rectal temperature, 2 hours after treatment [1, 7] | Rectal temperature, 3 hours after treatment [1, 7] | % Decrease in number of stretchings ([3]; 25 mg/kg os) | % Decrease in number of stretchings ([3]; 50 mg/kg os) | % Decrease in number of stretchings ([3]; 100 mg/kg os) | % Increase of pain threshold [4, 8] | % Increase of pain threshold [4, 7] | % Increase of pain threshold [4, 9] | % Increase of pain threshold [4, 10] | % Inhibition of oedema ([5]; 2.5 mg/kg i.p.) | % Inhibition of oedema [5, 11] | % Inhibition of oedema [5, 12] | % Inhibition of oedema [5, 8] | % Inhibition of oedema [5, 9] | % Inhibition of oedema [5, 10] | further results
C=CCOc1ccc(CC(=O)O)cc1Cl [4-allyloxy-3-chlorophenylacetic acid, reference compound] | 38.2 °C | 38.7 °C | 38.4 °C | 37.6 °C | 38.4 °C | 38.5 °C | 27% | 58% | 96% | 7% | 15% | 30% | 57% | 0% | 10% | 18% | 25% | 57% | 34% | Rectal temperature, 1 hour after treatment ([1]; 50 mg/kg os): 37.7 °C; Rectal temperature, 2 hours after treatment ([1]; 50 mg/kg os): 37.5 °C; Rectal temperature, 3 hours after treatment ([1]; 50 mg/kg os): 37.7 °C; Rectal temperature, 30 mins. after treatment ([2]; 10 mg/kg per os): 40.30 °C; Rectal temperature, 60 mins. after treatment ([2]; 10 mg/kg per os): 40.13 °C; Rectal temperature, 120 mins. after treatment ([2]; 10 mg/kg per os): 40.06 °C; Rectal temperature, 180 mins. after treatment ([2]; 10 mg/kg per os): 40.03 °C; Rectal temperature, 30 mins. after treatment ([2]; 25 mg/kg per os): 40.35 °C; Rectal temperature, 60 mins. after treatment ([2]; 25 mg/kg per os): 39.85 °C; Rectal temperature, 120 mins. after treatment ([2]; 25 mg/kg per os): 39.30 °C; Rectal temperature, 180 mins. after treatment ([2]; 25 mg/kg per os): 39.25 °C; % Increase of pain threshold ([4]; 100 mg/kg i.p.): 93%; % Increase of pain threshold ([4]; 100 mg/kg os): 92%
O=C(O)Cc1ccc(OCC2CC2)c(Cl)c1 [DL-lysine 4-cyclopropylmethyleneoxy-3-chlorophenylacetate] | 37.6 °C | 38.0 °C | 37.8 °C | 37.4 °C | 37.0 °C | 36.7 °C | 60% | 90% | 100% | 83% | 30% | 103% | 104% |  | 38% | 41% | 64% |  | 81% | 
O=C([O-])Cc1ccc(OCC2CC2)c(Cl)c1.O=C([O-])Cc1ccc(OCC2CC2)c(Cl)c1.[Cu+2] [copper 4-cyclopropylmethyleneoxy-3-chlorophenylacetate] | 38.1 °C | 37.7 °C | 36.7 °C | 37.8 °C | 37.2 °C | 36.6 °C | 50% | 81% | 99% | 67% | 62% | 121% | 116% |  | 32% | 38% | 51% | 61% | 71% | 
CCCCC1C(=O)N(c2ccccc2)N(c2ccccc2)C1=O [phenylbutazone, 4-butyl-1,2-diphenyl-3,5-dioxopyrazoline, reference compound] | 38.3 °C | 38.8 °C | 38.6 °C | 38.1 °C | 38.9 °C | 38.3 °C | 3% | 65% | 98% | 3% | 33% | 42% | 94% | 0% | 3% | 0% | 22% | 55% | 28% | Rectal temperature, 1 hour after treatment ([1]; 100 mg/kg os): 38.1 °C; Rectal temperature, 2 hours after treatment ([1]; 100 mg/kg os): 37.6 °C; Rectal temperature, 3 hours after treatment ([1]; 100 mg/kg os): 37.4 °C
